Assay results from US7737125B2, “LNA antagonists targeting the androgen receptor” (Enzon Pharamaceuticals, Inc., priority 2007, dated 2010).
Strand notation (5' to 3'): a small letter for the sugar, then the base; units joined by * are phosphorothioate-linked, units joined directly phosphodiester-linked; [ ] holds rarer units or linkages, { } end groups; capitals alone tell only the bases. l = locked nucleic acid (LNA); [5mC] = 5-methylcytosine; d = 2'-deoxy (DNA)

Experiments:
[1] = system: human androgen receptor mRNA; assay: Inhibition of androgen receptor mRNA expression in MCF7 cells, real-time PCR after transfection; type: cell-based; conditions: 16 nM oligonucleotide, AR mRNA normalised to GAPDH, down-regulation relative to mock transfected cells
Protocol: (§1) FIG. 1. Oligonucleotides presented in Table 3 were evaluated for their potential to knockdown the androgen receptor mRNA at concentrations of 1, 4 and 16 n-M in MCF7 cells 24 hours after transfection using Real-time PCR. All results were normalised to GAPDH and inhibition of AR mRNA is shown as percent of untreated control. Results shown are an average of three independent experiments.
MCF7 The human breast cancer cell line MCF7 was cultured in EagleMEM (Sigma)+10% fetal bovine serum (FBS)+2 mM Glutamax I+1×NEAA+gentamicin (25 μg/ml).
(§2) The cell lines listed in Example 4 were treated with an oligomer using the cationic liposome formulation LipofectAMINE 2000 (Gibco) as transfection vehicle. Cells were seeded in 6-well cell culture plates (NUNC) and treated when 80-90% confluent. Oligomer concentrations used ranged from 1 nM to 16 nM final concentration. Formulation of oligomer-lipid complexes were carried out essentially as described by the manufacturer using serum-free OptiMEM (Gibco) and a final lipid concentration of 5 μg/mL LipofectAMINE 2000. Cells were incubated at 37° C. for 4 hours and treatment was stopped by removal of oligomer-containing culture medium. Cells were washed and serum-containing media was added. After oligomer treatment, cells were allowed to recover for 20 hours before they were harvested for RNA analysis.
(§3) Total RNA was extracted from cells transfected as described above and using the Qiagen RNeasy kit (Qiagen cat. no. 74104) according to the manufacturer's instructions. First strand synthesis was performed using Reverse Transcriptase reagents from Ambion according to the manufacturer's instructions.
(§4) For each sample, the volume of 0.5 •g total RNA was adjusted to 10.8 •l with RNase free H2O and mixed with 2 •l random decamers (50 •M) and 4 •l dNTP mix (2.5 mM each dNTP) and heated to 70° C. for 3 min, after which the samples were rapidly cooled on ice. After cooling the samples on ice, 2 •l 10× Buffer RT, 1 •l MMLV Reverse Transcriptase (100 U/•l) and 0.25 •l RNase inhibitor (10 U/•l) were added to each sample, followed by incubation at 42° C. for 60 min, heat inactivation of the enzyme at 95° C. for 10 min and then cooling of the sample to 4° C.
(§5) The amount of human androgen receptor mRNA in the samples was quantified using the human androgen receptor ABI Prism Pre-Developed TaqMan Assay Reagents (Applied Biosystems cat. no. Hs00171172_m1) according to the manufacturer's instructions.
(§6) Glyceraldehyde-3-phosphate dehydrogenase (GAPDH) mRNA quantity was used as an endogenous control for normalizing any variance in sample preparation.
(§7) The cDNA from the first strand synthesis performed as described in Example 6 was diluted 2-20 times, and analyzed by real time quantitative PCR using Taquman 7500 FAST or 7900 FAST from Applied Biosystems. The primers and probe were mixed with 2× Taqman Fast Universal PCR master mix (2×) (Applied Biosystems Cat. #4364103) and added to 4 μl cDNA to a final volume of 10 μl. Each sample was analysed in duplicate. Standard curves were generated by assaying 2-fold dilutions of a cDNA that had been prepared on material purified from a cell line expressing the RNA of interest. Sterile H2O was used instead of cDNA for the no-template control. PCR program: 95° C. for 30 seconds, followed by 40 cycles of 95° C., 3 seconds, 60° C., 20-30 seconds. Relative quantities of target mRNA were determined from the calculated Threshold cycle using the Applied Biosystems Fast System SDS Software Version 1.3.1.21. or SDS Software Version 2.3.
(§8) Oligonucleotides presented in Table 3 were evaluated for their potential to knock down androgen receptor mRNA expression at concentrations of 1, 4 and 16 nM (see FIGS. 1 and 2).
(§9) The data in Table 3 are presented as percentage down-regulation relative to mock transfected cells at 16 nM. Lower case letters represent DNA monomers, bold, upper case letters represent β-D-oxy-LNA monomers. All cytosine bases in the LNA monomers are 5-methylcytosines. […]

[2] = system: human androgen receptor mRNA; assay: Inhibition of androgen receptor mRNA expression in A549 cells, real-time PCR after transfection; type: cell-based; conditions: 16 nM oligonucleotide, AR mRNA normalised to GAPDH, down-regulation relative to mock transfected cells
Protocol: as §1, with “2.” for “1.”, “nM” for “n-M”, “A549” for “MCF7”
A549 The human lung cancer cell line […] was cultured in DMEM (Sigma)+10% fetal bovine serum (FBS)+2 mM Glutamax I+gentamicin (25 μg/ml).
as §2, §3, §4, §5, §6, §7, §8, §9

[3] = system: mouse androgen receptor mRNA; assay: In vivo knock-down of AR mRNA expression in mouse liver (QPCR); conditions: nude mice, 100 mg/kg i.v. q3dx4, liver 24 h after last dosing, normalised to mouse GAPDH, relative to saline treated animals
Protocol: Nude mice were dosed i.v. q3dx4 with 100 mg/kg oligonucleotide (group size of 5 mice). The antisense oligonucleotides (SEQ ID:48, SEQ ID:51, SEQ ID:58, SEQ ID:63, SEQ ID:77) were dissolved in phosphate buffered saline. Animals were sacrificed 24 h after last dosing and liver tissue was sampled and stored in RNA later until RNA extraction and QPCR analysis. Total RNA was extracted and AR mRNA expression in liver samples was measured by QPCR as described in Example 7 using a mouse AR QPCR assay (cat. Mm01238475_m1, Applied Biosystems). Results were normalised to mouse GAPDH (cat. no. 4352339E, Applied Biosystems) and knock-own was quantitated relative to saline treated controls. The data in Table 4 are presented as percentage down-regulation relative to saline treated animals.

Substance | Percent inhibition of Androgen receptor - MCF7 [1] [%] | Percent inhibition of Androgen receptor - A549 [2] [%] | Liver (% KD) of AR mRNA expression [3]
5′-CsAsGsgscsasgsasasgsascsasTsCsT-3′ (antisense l[5mC]*lA*lG*dG*dC*dA*dG*dA*dA*dG*dA*dC*dA*lT*l[5mC]*lT) [SEQ ID NO: 76, LNA gapmer antisense oligonucleotide] | 85.9 | 94.3 | 
5′-CsAsTscscsasasascstscststsGsAsG-3′ (antisense l[5mC]*lA*lT*dC*dC*dA*dA*dA*dC*dT*dC*dT*dT*lG*lA*lG) [SEQ ID NO: 66, LNA gapmer antisense oligonucleotide] | 79.8 | 95.3 | 
5′-CsAsTscscscstsgscststscsasTsAsA-3′ (antisense l[5mC]*lA*lT*dC*dC*dC*dT*dG*dC*dT*dT*dC*dA*lT*lA*lA) [SEQ ID NO: 57, LNA gapmer antisense oligonucleotide] | 89.5 | 88.9 | 
5′-CsCsCscstsgsgsascstscsasgsAsTsG-3′ (antisense l[5mC]*l[5mC]*l[5mC]*dC*dT*dG*dG*dA*dC*dT*dC*dA*dG*lA*lT*lG) [SEQ ID NO: 46, LNA gapmer antisense oligonucleotide] | 89.4 | 82.8 | 
5′-CsTsTsgsgscscscsascststsgsAsCsC-3′ (antisense l[5mC]*lT*lT*dG*dG*dC*dC*dC*dA*dC*dT*dT*dG*lA*l[5mC]*l[5mC]) [SEQ ID NO: 61, LNA gapmer antisense oligonucleotide] | 86.7 | 93.3 | 
5′-GsAsAsgststscsastscsasasasGsAsA-3′ (antisense lG*lA*lA*dG*dT*dT*dC*dA*dT*dC*dA*dA*dA*lG*lA*lA) [SEQ ID NO: 68, LNA gapmer antisense oligonucleotide] | 88.2 | 85.6 | 
5′-GsAsGsasascscsastscscstscsAsCsC-3′ (antisense lG*lA*lG*dA*dA*dC*dC*dA*dT*dC*dC*dT*dC*lA*l[5mC]*l[5mC]) [SEQ ID NO: 44] | 80.1 | 63.8 | 
5′-GsCsAscsasasgsgsasgstsgsgsGsAsC-3′ (antisense lG*l[5mC]*lA*dC*dA*dA*dG*dG*dA*dG*dT*dG*dG*lG*lA*l[5mC]) [SEQ ID NO: 47, LNA gapmer antisense oligonucleotide] | 83.1 | 77.7 | 
5′-GsCsTststscsastsgscsascsasgsGsA-3′ (antisense lG*l[5mC]*lT*dT*dT*dC*dA*dT*dG*dC*dA*dC*dA*dG*lG*lA) [SEQ ID NO: 67, LNA gapmer antisense oligonucleotide] | 83.5 | 97.0 | 
5′-GsGsAscscsasgsgstsasgscscsTsGsT-3′ (antisense lG*lG*lA*dC*dC*dA*dG*dG*dT*dA*dG*dC*dC*lT*lG*lT) [SEQ ID NO: 45, LNA gapmer antisense oligonucleotide] | 89.0 | 88.2 | 
5′-TsCsCstsgsgsasgststsgsascsAsTsT-3′ (antisense lT*l[5mC]*l[5mC]*dT*dG*dG*dA*dG*dT*dT*dG*dA*dC*lA*lT*lT) [SEQ ID NO: 62, LNA gapmer antisense oligonucleotide] | 81.3 | 93.0 | 
5′-TsTsGscsascsasgsasgsastsgsAsTsC-3′ (antisense lT*lT*lG*dC*dA*dC*dA*dG*dA*dG*dA*dT*dG*lA*lT*l[5mC]) [SEQ ID NO: 72, LNA gapmer antisense oligonucleotide] | 79.2 | 90.4 | 
5′-TsTsTsgsascsascsasasgstsgsGsGsA-3′ (antisense lT*lT*lT*dG*dA*dC*dA*dC*dA*dA*dG*dT*dG*lG*lG*lA) [SEQ ID NO: 51, LNA gapmer antisense oligonucleotide] |  |  | 65.0 +/− 12.6%
